The values below come from PubChem BioAssay AID2305 (GlaxoSmithKline (GSK), 2010).

This assay relates to P. falciparum 3D7 growth, pLDH absorbance. The experiment in a line: P. falciparum 3D7 growth inhibition, dose response, strain 3D7 (AID 2305).

pIC50: −log10 of the molar value. “And” between values parts separate entries of the source, which are not always exact repeats. Equal values may be shown once.

Compound `O=C(Nc1cc(C(F)(F)F)ccc1-n1cncn1)C1(c2ccccc2)CC1` gave a pIC50 of 7.22.

Compound `COc1ccc2nccc([C@@H](O)CN3CCC(NCc4cc5cccc(O)c5[nH]4)CC3)c2c1` had a pIC50 of 6.08. Against the preceding compound, the pIC50 is 1.14 log units lower.

For `CN1CCN(S(=O)(=O)c2cccc(Nc3nccc(N(C)c4ccc5c(c4)nc(NC(=O)c4cccs4)n5C)n3)c2)CC1`, the pIC50 was 6.12.

`Cc1noc(C)c1-c1cccc(CNCc2cccc(-c3cccc(-c4nc5ccccc5[nH]4)c3)c2)c1`: the pIC50 was 6.42.

On to `CNC(=O)c1ccc2[nH]cc(C3CCN(CC4CCN(C(=O)/C=C/c5ccc(Cl)c(Cl)c5)CC4)CC3)c2c1`, for which the pIC50 was 5.82.

With `CN(Cc1ccc(NC(=O)NC2CCN(C(=O)/C=C/c3ccc(Cl)c(Cl)c3)CC2)cc1)C1CCOCC1`, the negative-log IC50 (pIC50) was 6.06.

As for `CN1CCC(NCc2cccc(-c3ccc(S(=O)(=O)NCCc4ccccn4)cc3)c2)CC1`, the pIC50 was 6.08.

As to `COC(=O)Nc1cc(C(F)(F)F)ccc1N1CCC(CNS(=O)(=O)c2ccc(OC)cc2)CC1`, the pIC50 is 6.60.

Regarding `COc1cncc(/C=C/c2cncc(C(=O)NCCc3ccc(Cl)cc3Cl)c2)c1`, the pIC50 is 6.06.

The compound `CNC(=O)c1ccccc1Nc1nc(Nc2ccc(C(=O)O)cc2)ncc1Cl` gave a pIC50 of 6.02. This pIC50 and that of the compound before are within 0.2 log units of each other.

The compound `CN(Cc1ccc(-c2ccc(C(F)(F)F)cc2)cc1)C(=O)Cn1c(CCc2cccc(F)c2F)nc(=O)c2ccc(N3CCN(CCN4CCCCC4)CC3)nc21` gave a pIC50 of 6.12.

As for `Fc1ccc(Nc2ccnc3cc(-c4ccc(CNCCN5CCOCC5)o4)ccc23)c(Cl)c1`, the pIC50 is 6.72.

Take `COc1cc(Nc2ccnc3ccc(C(F)(F)F)cc23)ccc1OCCCc1ccccc1`: the pIC50 was 6.11.

`O=c1cc(NCCNCc2cccc(-c3ccccc3)c2)[nH]c2ccccc12` gave a pIC50 of 5.99.

On to `CC(CCCCC(=O)Nc1ccc(C(F)(F)F)cc1)NCC(O)c1cccc(Cl)c1` (stereo unspecified), for which the pIC50 was 6.55.

With `CC(Cc1ccc(NC(=O)c2ccc(CNCc3ccccc3)cc2)cc1)N(CCc1cccc(Cl)c1)C(=O)OC(C)(C)C` (stereo unspecified), the pIC50 is 6.01. Against the preceding compound, the pIC50 is 0.54 log units lower.

Compound `O=C1CSc2ccc(CNC3CCN(CCc4c(F)cnc5ccc(F)cc45)CC3)nc2N1` had a pIC50 of 6.28.

Turning to `CC(C)CN1CCCN(Cc2cccc(NC(=O)c3cc4ccccc4s3)c2)CC1`, the pIC50 was 5.75.

As for `Clc1cc(Cl)cc(Nc2ccnc(Nc3cc(Cl)cc(Cl)c3)n2)c1`, the pIC50 is 6.17.

Compound `COc1ccc2c(=O)c(Br)c(C)[nH]c2c1` had a pIC50 of 6.72.

Compound `Cc1[nH]c2cc(F)ccc2c1C1=CCN(CCCCC2(C)C(=O)Nc3c(F)cccc32)CC1` (stereo unspecified) showed a pIC50 of 6.40. This pIC50 is 0.32 log units lower than that of the compound before.

`Cc1cc(N[C@@H](Cc2ccccc2)C(=O)NCCOc2ccccc2)nc(NCc2ccccc2C)n1` showed a pIC50 of 6.15.

In turn, `CCOC(=O)c1c(-c2ccccc2)[nH]c2c(sc3ccccc32)c1=O` gave a pIC50 of 6.43.

`FC(F)(F)c1ccc2nc(-c3cccc(-c4ccc(CNCc5ccccc5)cc4)c3)[nH]c2c1`: the pIC50 is 6.80. This pIC50 is 0.37 log units higher than that of the compound before.

In turn, `CC(Cc1ccc(C(=O)N2CCN(C(=O)c3ccc(CC(C)NCCc4cccc(Cl)c4)cc3)CC2)cc1)NCCc1cccc(Cl)c1` (stereo unspecified) gave a pIC50 of 6.17.

`C[C@@H]1CN(CCCn2c3ccccc3c3ccc(C(=O)CCCN(C)C)cc32)C[C@H](C)N1` had a pIC50 of 6.09.

Turning to `CC1CCCN(C(=O)C(C)Nc2cc(Cl)ccc2N2CCOCC2)C1` (stereo unspecified), the pIC50 is 6.49. Against the preceding compound, the pIC50 is 0.40 log units higher.

As for `OC(CNCc1ccccc1Oc1ccccc1)c1cccc(C(F)(F)F)c1` (stereo unspecified), the pIC50 is 6.15.

For the compound `Nc1ncc(-c2ccccc2)cc1-c1nc2cc(Cl)c(F)cc2[nH]1`, the pIC50 was 6.59.

`CC(C)COc1ccc(Cl)cc1Cc1ccc(-c2nc3ccc(F)cc3[nH]2)o1` had a pIC50 of 6.07.

For `CCN1CCC(N2CCC(C(=O)Nc3cccc(-c4cccc(Cl)c4)c3)CC2)CC1`, the pIC50 was 5.97.

`Oc1cccc(C2CCCN(Cc3cccc4cc[nH]c34)C2)c1` (stereo unspecified) had a pIC50 of 6.29.

For `Cc1[nH]c(C)c(-c2ccc(-c3ccc(C(F)(F)F)cc3C(F)(F)F)nc2)c(=O)c1Br`, the pIC50 is 6.72.

Compound `COc1cccc(CCN(Cc2ccccc2-c2ccc(CNC3CC(C)(C)NC(C)(C)C3)cc2)C(=O)NC2CCCCC2)c1` gave a pIC50 of 6.03.

Consider `Cn1c(=O)c2cc(C(=O)NCCCN3CCCCCC3)sc2c2ccccc21`, for which the pIC50 was 6.16. This pIC50 and that of the compound before are within 0.2 log units of each other.

Regarding `COc1ccc2nccc([C@@H](O)CN3CCC(NCc4cc5sccc5nc4C(F)(F)F)CC3)c2c1`, the pIC50 is 6.04.

The compound `CC(C)c1ccc(NC(=O)c2ccc(C(=O)NC3CCN(CC4CCCCC4)C3)cc2)cc1` (stereo unspecified) had a pIC50 of 6.10. This pIC50 and that of the compound before are within 0.2 log units of each other.

As to `CCNc1cc(C(=O)N[C@@H](Cc2ccccc2Cl)[C@H](O)CNC(C)CCCC(C)C)cc(N2CCCCS2(=O)=O)c1` (stereo partly specified), the pIC50 was 6.03.

In turn, `CNCCN(C)C(=O)Oc1c(Br)c(C)nc(C)c1-c1ccc(Oc2ccc(OC(F)(F)F)cc2)cc1` gave a pIC50 of 6.96.

With `NCCCNc1nc(Nc2ccc(C(F)(F)F)cc2F)c2c(=O)[nH]ccc2n1`, the pIC50 is 5.98.

For `COc1ccc(OC(C)CNC(=O)c2cc([N+](=O)[O-])ccc2-c2ccc(OC)cc2)cc1` (stereo unspecified), the pIC50 was 5.94.

Consider `Cc1noc(-c2ccc3c(c2)CCN(CCC2CCC(NC(=O)/C=C/c4ccc(F)cc4)CC2)CC3)n1` (stereo unspecified), for which the negative-log IC50 (pIC50) was 5.99.

Turning to `O=C(NCc1cccc(F)c1)c1ccc(O)c(-c2cc(Cl)cc(Cl)c2)c1`, the pIC50 was 6.25. This pIC50 lies 0.26 log units higher than the previous one.

Turning to `CCN(CCCN1CCCCC1)c1nc(C)cc(Nc2ccc(Cl)cc2)n1`, the negative logarithm of the IC50 (pIC50) is 6.08.

As for `O=C(Nc1ccc(F)cc1)c1nc2ccccc2nc1Cl`, the negative logarithm of the IC50 (pIC50) is 5.91. This pIC50 and that of the compound before are within 0.2 log units of each other.

Turning to `N#Cc1ccc(S(=O)(=O)N2C(c3cccc([N+](=O)[O-])c3)C(C(=O)c3ccccc3)N(C3CCCCC3)C2c2cccc([N+](=O)[O-])c2)cc1` (stereo unspecified), the pIC50 was 5.97.

`O=C(CCCCCNC(=O)c1ccc(O)c(-c2ccc(Cl)c(Cl)c2)c1)NCCN1CCCCC1` showed a pIC50 of 6.05.

In turn, `O=C(NCCCCCN1CCC(c2c[nH]c3ccccc23)CC1)c1ccc(-c2ccccc2)nc1` had a pIC50 of 5.99.

`CCC[C@@H]([C@@H](CC1CCCCC1)C(=O)N[C@H](C(=O)Nc1nccs1)C(C)(C)SCCNC(=O)OCc1ccccn1)N(O)C=O` had a pIC50 of 6.80.

`C=CCC1OC(=O)c2cc(OC)cc(OC)c21` (stereo unspecified) gave a pIC50 of 6.47.

The compound `O=c1cc(NCCCNC2CCOc3c(Cl)cc(Cl)cc32)[nH]c2ccccc12` (stereo unspecified) showed a pIC50 of 6.14.

On to `CCCCc1ccc(-c2ccc3[nH]c(C)c(Br)c(=O)c3c2)cc1`, for which the pIC50 was 6.96.

`CN1CCCN(Cc2cccc(-c3cccc(NC(=O)c4ccc(C#N)cc4)c3)c2)CC1` showed a pIC50 of 5.94.

`Cc1ccnc2nc(C(=O)Nc3cc(Cl)ccc3N3CCOCC3)nn12`: the pIC50 was 5.91.

`CN(C)Cc1cc2c(O)c(Cc3ccccc3)ccc2o1` had a pIC50 of 5.96.

Regarding `CS(=O)(=O)c1ccc2nc(NC(=O)c3csnn3)sc2c1`, the negative-log IC50 (pIC50) was 6.17. This pIC50 lies 0.21 log units higher than the previous one.

The compound `CC[C@H]1CN2CC[C@H]1C[C@@H]2[C@@H](O)c1ccnc2ccc(OC)cc12` showed a pIC50 of 6.92.

Turning to `COc1ccc(CCN(C)CCOc2ccc(NC(=O)c3cc(SC)cc4c(=O)c5ccccc5[nH]c34)cc2)cc1OC`, the pIC50 is 5.85. Compared with the last compound, the pIC50 is 1.07 log units lower.

The compound `O=C1CCCN1CCCNCc1ccc(-c2ccc(-c3nc4ccc(F)cc4[nH]3)cc2)cc1` gave a pIC50 of 6.22.

For the compound `c1ccc2c(NCCCCCCNc3c4c(nc5ccccc35)CCCC4)c3c(nc2c1)CCCC3`, the pIC50 is 6.70.

`CCc1ccc(C2CCN(CCCCNC(=O)c3ccc(NC(=O)c4ccc(Cl)cc4)cc3)CC2)c(OCCO)c1`: the negative logarithm of the IC50 (pIC50) was 5.86.

`O=C(Nc1cccc(-c2nc3ccccc3s2)c1)c1ccccc1[N+](=O)[O-]`: the pIC50 is 6.11.

In turn, `Cc1cc(N)c2cc(NC(=O)c3cc4ccccc4s3)ccc2n1` gave a pIC50 of 6.96.

Consider `Cc1onc(-c2ccccc2)c1-c1nc(NCc2ccccc2Cl)no1`, for which the pIC50 was 6.15.

As for `Cc1cc(-c2cccc3c(C(=O)N4CCc5cc6nccc(N7CCN8CCC[C@H]8C7)c6cc54)cccc23)cc(C)n1`, the pIC50 was 6.15.

The compound `NC(=O)c1cccc(CNC(=O)NC[C@H]2CN(Cc3ccc(Cl)c(Cl)c3)CCO2)c1` had a pIC50 of 6.23.

Compound `Cc1cccc2[nH]c(-c3ccc(-c4cccc(CNCCCN5CCCC5=O)c4)s3)nc12` had a pIC50 of 6.23.

Regarding `COc1ccc2nccc(N3CCCN(CCNS(=O)(=O)c4ccc5c(c4)NC(=O)CS5)CC3)c2n1`, the pIC50 is 6.09.

In turn, `Cc1ccc(S(=O)(=O)NC2CCN(c3ccnc4cc(Cl)ccc34)C2)cc1` (stereo unspecified) gave a pIC50 of 6.21.

The compound `Nc1ncc(-c2cn[nH]c2)cc1-c1nc2ccc(F)cc2[nH]1` gave a pIC50 of 6.14.

The compound `CC(C)CNCc1cccc(-c2cccc(CN(C(=O)c3cccs3)C3CCN(Cc4ccccc4)CC3)c2)c1` showed a pIC50 of 6.05.

Regarding `COc1cc(NC(=O)N2CCc3ccc(OCCN(C(C)C)C(C)C)cc32)cc(C(F)(F)F)c1`, the pIC50 was 6.72.

As for `CCCCCCCN(Cc1ccc(OC(C)(C)C(=O)OCC)cc1)C(=O)Cc1ccc(F)cc1F`, the pIC50 was 5.99.

Compound `CSc1nc2cc3c(cc2n1C(=O)c1ccc(C)cc1)OCCO3` had a pIC50 of 6.77.

The compound `CN1CCN(CCCNc2ncc3c(-c4ccc(NC(=O)Nc5cc(C(F)(F)F)ccc5F)c(F)c4)nn(C)c3n2)CC1` gave a pIC50 of 6.07.

Compound `O=C(Nc1cccc(-c2ccc(-c3nc4ccc(F)cc4[nH]3)cc2)c1)c1cccnc1` showed a pIC50 of 6.21.

Take `CCOc1cc2ncnc(Nc3ccc(OCc4ccccc4F)c(Cl)c3)c2cc1OCC`: the pIC50 is 6.22.

With `Cc1cc(C(=O)Nc2ccc3c(c2)CCN3C2CCN(Cc3cccc(F)c3F)C2)no1` (stereo unspecified), the pIC50 was 6.24.

Compound `CN1CCCN(Cc2ccc(-c3ccc(NC(=O)c4cccc(Cl)c4)cc3)cc2)CC1` gave a pIC50 of 6.07. The pIC50 values of the last two compounds are within 0.2 log units of each other.

As for `Cn1c(NC2=NC3(c4ccccn4)N=C(Nc4nc5ccccc5n4C)NC3(c3ccccn3)N2)nc2ccccc21` (stereo unspecified), the pIC50 was 5.98. This pIC50 and that of the compound before are within 0.2 log units of each other.

The compound `COc1ccc(-n2ccnc2)cc1CNC1CCN(CC2Cn3c(=O)ccc4ccc(F)c2c43)CC1` (stereo unspecified) gave a pIC50 of 6.03.

Turning to `CN1CCCN(Cc2ccc(-c3ccc(NC(=O)c4ccc(C#N)cc4)cc3)cc2)CC1`, the pIC50 was 5.99.

`COc1ccc(Nc2nc(NN=Cc3ccc(O)cc3)nc(Nc3ccc([N+](=O)[O-])cc3)n2)cc1`: the pIC50 is 5.95.

`CCN(CC)CCCC(C)Nc1c2ccc(Cl)cc2nc2ccc(OC)cc12` (stereo unspecified) showed a pIC50 of 7.40.

In the case of `O=C(C=Cc1ccc(F)c(Br)c1)NC1CCC(CN2CCC(c3c[nH]c4ccccc34)CC2)CC1` (stereo unspecified), the pIC50 is 6.10 and 6.08.

As to `Oc1ccc2ccccc2c1CNCC1CCCCC1`, the pIC50 was 6.17.

As a reminder, the pIC50 is the IC50 on a negative log10 scale, so that one unit is a factor of ten. A high value points to a low IC50.
